Data: US12404242B2, “Compositions and methods for making and using small molecules in the treatment of cancer” (Reglagene, Inc., priority 2021, dated 2025)
Converted amounts (≈) assume the structure as drawn.

Columns and labels:
[1] = Kinetic solubility in aqueous PBS buffer (HPLC-MS); format: physicochemical; settings: kinetic from dmso stock, DMSO stock mixed with aqueous PBS buffer, filtered, read-out: Kinetic Solubility
Method: In another exemplary method, central nervous system multiparameter optimization (CNS MPO) score and kinetic solubility of selected compounds was determined. CNS MPO score for compounds and their isomers disclosed herein were calculated using an algorithm that uses a weighted scoring function assessing 6 key physicochemical properties (clogP, clogD, MW, TPSA, HBD, and pKa) for blood-brain-barrier (BBB penetration). CNS MPO score ranged from 0 and 6.0 with scores≥4.0 used as a cut-off to select compounds that can have a high probability of accumulating in the CNS. Kinetic solubility of a compound is the maximum solubility of the fastest precipitating species of the compound. Kinetic solubility was determined by preparing a concentrated stock solution for compounds and their isomers disclosed herein in an organic solvent (DMSO), after which the solution was mixed with an aqueous PBS buffer and then filtered. Filtrate was tested to quantify the kinetic solubilty using HPLC-MS calibration curve. The CNS MPO Score and kinetic solubility of the compounds tested are provided in Table 7 where “ND” means not determined.

LNCaP cells = assay: Cell viability (AlamarBlue), LNCaP prostate cancer cells; format: cell-based, human; parameters: key to EC50 (μM) in LNCaP cells: Inactive: less than 50% inhibition at the highest concentration tested at 50 μM; settings: 72 hours of treatment; for EC50: Homo sapiens, LNCaP, 72 h
Method: (§1) In another exemplary method, half maximal effective concentration (EC50) was determined for some compounds and their isomers as disclosed herein in a variety of human cancer cell lines. In brief, cells from two prostate cancer cell lines (LNCaP, 22RV1), one glioblastoma cell line (U87), one breast cancer cell line (MCF7), a glioma cell line (LN18), a normal prostate cell line (RWPE1), and a glioblastoma cell line (T98G) were plated in a multi-well plate. After 24 hours, one of the compounds herein was added to the well at increasing concentrations. After 72 hours of treatment, cell viability was assessed using AlamrBlue® (Invitrogen) and fluorescence was read using the CLARIOstar Plus Multilabel Plate Reader (BMG Labtech). Samples were normalized to no treatment controls. EC50 values were determined using GraphPad Prism.

U87 cells = assay: Cell viability (AlamarBlue), U87 glioblastoma cells; format: cell-based, human; parameters: key to EC50 (μM) in U87 cells: Inactive: less than 50% inhibition at the highest concentration tested at 50 μM; settings: 72 hours of treatment; for EC50: Homo sapiens, U-87 MG, 72 h
Method: as §1

22RV1 cells = assay: Cell viability (AlamarBlue), 22RV1 prostate cancer cells; format: cell-based, human; parameters: key to EC50 (μM) in 22RV1 cells: Inactive: less than 50% inhibition at the highest concentration tested at 50 μM; settings: 72 hours of treatment; for EC50: Homo sapiens, 22Rv1, 72 h
Method: as §1

| Structure (SMILES) | solubility kinetic [1] [µM] | EC50 (μM) in LNCaP cells (LNCaP cells) | EC50 (μM) in U87 cells (U87 cells) | EC50 (μM) in 22RV1 cells (22RV1 cells) | EC50 (U87 cells) [µM] | EC50 (22RV1 cells) [µM] | EC50 (LNCaP cells) [µM] |
| --- | --- | --- | --- | --- | --- | --- | --- |
| COC1CCC(C(=O)NC(=O)Nc2ccc(Oc3ccc(C#N)cn3)c(C)c2)CC1 (centres unmarked) [Compound 6, 3-{4-[(5-cyanopyridin-2-yl)oxy]-3-methylphenyl}-1-(4-methoxycyclohexanecarbonyl)urea] | 0.53 (≈ 0.216 µg/mL) | – | – | – | – | – | – |
| COC1CC(C(=O)NC(=O)Nc2ccc(Oc3ccc(F)cn3)c(C)c2)C1 (centres unmarked) [Compound 15, N-((4-((5-fluoropyridin-2-yl)oxy)-3-methylphenyl)carbamoyl)-3-methoxycyclobutane-1-carboxamide] | 14.7 (≈ 5.48 µg/mL) | – | – | – | – | – | – |
| COC1CC(C(=O)NC(=O)Nc2ccc(Oc3ccc(C#N)cn3)c(C)c2)C1 (centres unmarked) [Compound 16, N-((4-((5-cyanopyridin-2-yl)oxy)-3-methylphenyl)carbamoyl)-3-methoxycyclobutane-1-carboxamide] | 11.6 (≈ 4.41 µg/mL) | – | – | – | – | – | – |
| COC1CC(C(=O)NC(=O)Nc2ccc(Oc3ncc(Cl)cn3)c(C)c2)C1 (centres unmarked) [Compound 20, N-((4-((5-chloropyrimidin-2-yl)oxy)-3-methylphenyl)carbamoyl)-3-methoxycyclobutane-1-carboxamide] | 7.1 (≈ 2.77 µg/mL) | – | – | – | – | – | – |
| Cc1cc(NC(=O)NC(=O)C2CC(OCC3CC3)C2)ccc1Oc1ccc(Cl)cn1 (centres unmarked) [Compound 40, N-((4-((5-chloropyridin-2-yl)oxy)-3-methylphenyl)carbamoyl)-3-(cyclopropylmethoxy)cyclobutane-1-carboxamide] | – | Inactive | Inactive | Inactive | – | – | – |
| Cc1cc(NC(=O)NC(=O)C2CC(OCC3CC3)C2)ccc1Oc1ncc(Cl)cn1 (centres unmarked) [Compound 41, N-((4-((5-chloropyrimidin-2-yl)oxy)-3-methylphenyl)carbamoyl)-3-(cyclopropylmethoxy)cyclobutane-1-carboxamide] | – | Inactive | – | – | 49 | 46 | – |
| COC1CCC(C(=O)NC(=O)Nc2ccc(Oc3cncnc3)c(C)c2)CC1 (centres unmarked) [Compound 42, 4-methoxy-N-((3-methyl-4-(pyrimidin-5-yloxy)phenyl)carbamoyl)cyclohexane-1-carboxamide] | – | – | – | – | 41.5 | 37 | 19.8 |
| COC1CC(C(=O)NC(=O)Nc2ccc(Oc3cncnc3)c(C)c2)C1 (centres unmarked) [Compound 43, 3-methoxy-N-((3-methyl-4-(pyrimidin-5-yloxy)phenyl)carbamoyl)cyclobutane-1-carboxamide] | – | – | – | – | 34 | 39 | 21.8 |
| COC1CC(C(=O)NC(=O)Nc2ccc(Oc3nccs3)c(C)c2)C1 (centres unmarked) [Compound 45, 3-methoxy-N-((3-methyl-4-(thiazol-2-yloxy)phenyl)carbamoyl)cyclobutane-1-carboxamide] | 58.4 (≈ 21.1 µg/mL) | – | – | – | – | – | – |
| COC1CCC(C(=O)NC(=O)Nc2ccc(Oc3cnc(N4CCOCC4)nc3)c(C)c2)CC1 (centres unmarked) [Compound 46, 4-methoxy-N-((3-methyl-4-((2-morpholinopyrimidin-5-yl)oxy)phenyl)carbamoyl)cyclohexane-1-carboxamide] | 0.39 (≈ 0.183 µg/mL) | – | Inactive | – | – | 8 | 2.9 |
| COCCOC1CC(C(=O)NC(=O)Nc2ccc(Oc3ncc(Cl)cn3)c(C)c2)C1 (centres unmarked) [Compound 48, N-((4-((5-chloropyrimidin-2-yl)oxy)-3-methylphenyl)carbamoyl)-3-(2-methoxyethoxy)cyclobutane-1-carboxamide] | 84.2 (≈ 36.6 µg/mL) | – | – | – | 6.4 | 3.2 | 12.4 |
| COCCOC1CC(C(=O)NC(=O)Nc2ccc(Oc3ccc(Cl)cn3)c(C)c2)C1 (centres unmarked) [Compound 49, N-((4-((5-chloropyridin-2-yl)oxy)-3-methylphenyl)carbamoyl)-3-(2-methoxyethoxy)cyclobutane-1-carboxamide] | 37.5 (≈ 16.3 µg/mL) | – | – | – | 3.7 | 1.3 | 11.8 |
| COCCOC1CCC(C(=O)NC(=O)Nc2ccc(Oc3ncc(Cl)cn3)c(C)c2)CC1 (centres unmarked) [Compound 50, N-((4-((5-chloropyrimidin-2-yl)oxy)-3-methylphenyl)carbamoyl)-4-(2-methoxyethoxy)cyclohexanecarboxamide] | – | Inactive | Inactive | Inactive | – | – | – |
| COC1CCC(C(=O)NC(=O)Nc2ccc(Oc3cnc(N4CC5(COC5)C4)nc3)c(C)c2)CC1 (centres unmarked) [Compound 51, N-((4-((2-(2-oxa-6-azaspiro[3.3]heptan-6-yl)pyrimidin-5-yl)oxy)-3-methylphenyl)carbamoyl)-4-methoxycyclohexanecarboxamide] | – | – | – | – | 29 | 20 | 11.1 |
| COC1CC(C(=O)NC(=O)Nc2ccc(Oc3cnc(N4CC5(COC5)C4)nc3)c(C)c2)C1 (centres unmarked) [Compound 52, -((4-((2-(2-oxa-6-azaspiro[3.3]heptan-6-yl)pyrimidin-5-yl)oxy)-3-methylphenyl)carbamoyl)-3-methoxycyclobutanecarboxamide] | – | – | Inactive | – | – | 36 | 25.3 |
| Cc1cc(NC(=O)NC(=O)C2CCC(O)CC2)ccc1Oc1ncc(Cl)cn1 (centres unmarked) [Compound 53, N-((4-((5-chloropyrimidin-2-yl)oxy)-3-methylphenyl)carbamoyl)-4-hydroxycyclohexane-1-carboxamide] | – | Inactive | Inactive | Inactive | – | – | – |
| COCCOC1CCC(C(=O)NC(=O)Nc2ccc(Oc3ncc(Cl)cn3)c(F)c2)CC1 (centres unmarked) [Compound 54, N-((4-((5-chloropyrimidin-2-yl)oxy)-3-fluorophenyl)carbamoyl)-4-(2-methoxyethoxy)cyclohexane-1-carboxamide] | – | Inactive | Inactive | Inactive | – | – | – |
| COC1CC(C(=O)NC(=O)Nc2ccc(Oc3nncs3)c(C)c2)C1 (centres unmarked) [Compound 55, N-((4-((1,3,4-thiadiazol-2-yl)oxy)-3-methylphenyl)carbamoyl)-3-methoxycyclobutanecarboxamide] | – | Inactive | Inactive | – | – | 30.6 | – |
| COC1CC(C(=O)NC(=O)Nc2ccc(Oc3ncns3)c(C)c2)C1 (centres unmarked) [Compound 57, N-((4-((1,2,4-thiadiazol-5-yl)oxy)-3-methylphenyl)carbamoyl)-3-methoxycyclobutane-1-carboxamide] | 75 (≈ 27.2 µg/mL) | – | – | – | 13.5 | 6.3 | 3.1 |
| COC1CC(C(=O)NC(=O)Nc2ccc(Oc3ncc(C(F)(F)F)s3)c(C)c2)C1 (centres unmarked) [Compound 61, 3-methoxy-N-((3-methyl-4-((5-(trifluoromethyl)thiazol-2-yl)oxy)phenyl)carbamoyl)cyclobutane-1-carboxamide] | – | – | – | – | 0.35 | 1.6 | 0.93 |
| COC1CC(C(=O)NC(=O)Nc2ccc(Oc3ncc(C#N)s3)c(C)c2)C1 (centres unmarked) [Compound 62, N-((4-((5-cyanothiazol-2-yl)oxy)-3-methylphenyl)carbamoyl)-3-methoxycyclobutane-1-carboxamide] | – | – | – | – | 5.4 | 1 | 21 |
| COC1(C(=O)NC(=O)Nc2ccc(Oc3ncc(Cl)cn3)c(C)c2)CC1 [Compound 66, N-((4-((5-chloropyrimidin-2-yl)oxy)-3-methylphenyl)carbamoyl)-1-methoxycyclopropane-1-carboxamide] | – | Inactive | Inactive | Inactive | – | – | – |
| COC1(C(=O)NC(=O)Nc2ccc(Oc3nccs3)c(C)c2)CC1 [Compound 68, 1-methoxy-N-((3-methyl-4-(thiazol-2-yloxy)phenyl)carbamoyl)cyclopropane-1-carboxamide] | – | Inactive | Inactive | Inactive | – | – | – |
| COC1(C(=O)NC(=O)Nc2ccc(Oc3ncccn3)c(C)c2)CC1 [Compound 69, 1-methoxy-N-((3-methyl-4-(pyrimidin-2-yloxy)phenyl)carbamoyl)cyclopropane-1-carboxamide] | – | Inactive | Inactive | Inactive | – | – | – |
| COC12CC(C(=O)NC(=O)Nc3ccc(Oc4ncc(Cl)cn4)c(C)c3)(C1)C2 [Compound 85, N-((4-((5-chloropyrimidin-2-yl)oxy)-3-methylphenyl)carbamoyl)-3-methoxybicyclo[1.1.1]pentane-1-carboxamide] | 2.21 (≈ 0.89 µg/mL) | – | – | – | 0.06 | – | – |
